Test results: US6342225B1, “Pharmaceutical active conjugates” (Deutshces Wollforschungsinstitut, priority 1993, dated 2002)
Blank lines part the entries; values can stand above or below the substance they belong to.

Experiments:
[1] = test system: glucose production (Ra) and glucose disposal (Rd); experiment: glucose turnover during infusion with D-3H-3-glucose in anaesthetized beagles, euglycaemia maintained; assay type: in vivo; details: mean±SEM
[2] = biological target: T1, thyroxine binding globulin (TBG) (Homo sapiens, UniProt P05543); experiment: optical biosensor IAsys kinetic binding to immobilized TBG; details: control, 500 μg/ml
T1 sequence (P05543 21-415): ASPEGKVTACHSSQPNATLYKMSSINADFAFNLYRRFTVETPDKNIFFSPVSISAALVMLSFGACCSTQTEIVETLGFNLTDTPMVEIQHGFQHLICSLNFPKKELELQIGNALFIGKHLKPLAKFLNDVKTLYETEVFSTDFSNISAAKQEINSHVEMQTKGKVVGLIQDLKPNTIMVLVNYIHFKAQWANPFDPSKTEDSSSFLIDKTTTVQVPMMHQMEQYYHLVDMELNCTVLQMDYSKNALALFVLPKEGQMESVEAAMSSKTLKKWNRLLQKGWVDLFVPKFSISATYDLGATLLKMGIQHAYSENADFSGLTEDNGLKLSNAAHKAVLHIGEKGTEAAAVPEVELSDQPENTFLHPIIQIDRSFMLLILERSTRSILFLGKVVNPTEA

[3] = test system: hepatic glucose output and peripheral uptake; details: British Diabetic Association conference 1989; cited from earlier work

Substance: insulin
AUC for Ra (glucose production), area between basal and subsequent values against time [1]: -431 ± 121 mg/kg | AUC for Rd (glucose disposal), area between basal and subsequent values against time [1]: 1142 ± 160 mg/kg

association to immobilized TBG [2]: association cannot be observed
Substance: native insulin: native insulin injected at 500 μg/ml as control in the biosensor study

Substance: proinsulin: the zymogen which is cleaved to form the active hormone insulin
hepatoselectivity (effect on hepatic glucose output versus peripheral uptake and utilisation) [3]: shows this hepatoslectivity to a smaller degree
